In patent US12077503B2, “Substituted cyclic amides and their use as herbicides” (FMC CORPORATION, priority 2015, dated 2024):

Tests used:
Type in all cases: in vivo
[1] = tested on: giant foxtail (Setaria faberii); test: Test A postemergence; settings: Setaria faberi, post-emergence, 240 h, Postemergence, read-out: Foxtail, Giant plant response rating (0 to 100 scale); for pest or weed control at 125 g/ha: 125 g ai/ha, visual rating about 10 d after treatment; for pest or weed control at 31 g/ha: 31 g ai/ha, 0 is no effect, 100 is complete control
Summary of the method: (§1)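 Visual injury, scored on a 0–100 scale relative to untreated controls, was recorded about 10 d after application. Treatments were a preemergence soil spray over planted seeds or a postemergence spray on plants at the one- to two-leaf stage, 2 to 10 cm tall, all in loam soil–sand blend in the greenhouse.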

[2] = tested on: pigweed (Amaranthus retroflexus); test: Test A postemergence; settings: Amaranthus retroflexus, post-emergence, 240 h, Postemergence, read-out: Pigweed plant response rating (0 to 100 scale); for pest or weed control at 125 g/ha: 125 g ai/ha, visual rating about 10 d after treatment; for pest or weed control at 31 g/ha: 31 g ai/ha, 0 is no effect, 100 is complete control
Summary of the method: as §1

[3] = tested on: ryegrass, Italian (Italian ryegrass, Lolium multiflorum); test: Test A postemergence; settings: Lolium multiflorum, post-emergence, 240 h, Postemergence, read-out: Ryegrass, Italian plant response rating (0 to 100 scale); for pest or weed control at 125 g/ha: 125 g ai/ha, visual rating about 10 d after treatment; for pest or weed control at 31 g/ha: 31 g ai/ha, 0 is no effect, 100 is complete control
Summary of the method: as §1

[4] = tested on: ragweed (common ragweed, Ambrosia elatior); test: Test A postemergence; settings: Ambrosia artemisiifolia, post-emergence, 240 h, Postemergence, read-out: Ragweed plant response rating (0 to 100 scale); for pest or weed control at 125 g/ha: 125 g ai/ha, visual rating about 10 d after treatment; for pest or weed control at 31 g/ha: 31 g ai/ha, 0 is no effect, 100 is complete control
Summary of the method: as §1

[5] = tested on: blackgrass (Alopecurus myosuroides); test: Test A postemergence; settings: Alopecurus myosuroides, post-emergence, 240 h, Postemergence, read-out: Blackgrass plant response rating (0 to 100 scale); for pest or weed control at 125 g/ha: 125 g ai/ha, visual rating about 10 d after treatment; for pest or weed control at 31 g/ha: 31 g ai/ha, 0 is no effect, 100 is complete control
Summary of the method: as §1

[6] = tested on: barnyardgrass (Echinochloa crus-galli); test: Test A postemergence; settings: Echinochloa crus-galli, post-emergence, 240 h, Postemergence; for pest or weed control at 125 g/ha: 125 g ai/ha, visual rating about 10 d after treatment, read-out: Barnyardgrass plant response rating (0 to 100 scale, 0 no effect, 100 complete control); for pest or weed control at 31 g/ha: 31 g ai/ha, 0 is no effect, 100 is complete control, read-out: Barnyardgrass plant response rating (0 to 100 scale)
Summary of the method: as §1

[7] = tested on: wheat (Triticum aestivum); test: Test A postemergence; settings: Triticum aestivum, post-emergence, 240 h, Postemergence, read-out: Wheat plant response rating (0 to 100 scale); for plant injury at 125 g/ha: 125 g ai/ha, visual rating about 10 d after treatment; for plant injury at 31 g/ha: 31 g ai/ha, 0 is no effect, 100 is complete control
Summary of the method: as §1

Kochia (Kochia scoparia) [8] = test: Test A postemergence; settings: Bassia scoparia, post-emergence, 240 h, Postemergence, read-out: Kochia plant response rating (0 to 100 scale); for pest or weed control at 125 g/ha: 125 g ai/ha, visual rating about 10 d after treatment; for pest or weed control at 31 g/ha: 31 g ai/ha, 0 is no effect, 100 is complete control
Summary of the method: as §1

corn (Zea mays) = test: Test A postemergence; settings: Zea mays, post-emergence, 240 h, Postemergence, read-out: Corn plant response rating (0 to 100 scale); for plant injury at 125 g/ha: 125 g ai/ha, visual rating about 10 d after treatment; for plant injury at 31 g/ha: 31 g ai/ha, 0 is no effect, 100 is complete control
Summary of the method: as §1

[9] = tested on: Galium (catchweed bedstraw, Galium aparine); test: Test A postemergence; settings: Galium, post-emergence, 240 h, Postemergence, read-out: Galium plant response rating (0 to 100 scale); for pest or weed control at 125 g/ha: 125 g ai/ha, visual rating about 10 d after treatment; for pest or weed control at 31 g/ha: 31 g ai/ha, 0 is no effect, 100 is complete control
Summary of the method: as §1

[10] = tested on: ducksalad (Heteranthera limosa); test: Test B flooded paddy test; settings: Heteranthera limosa, 250 g ai/ha, Flood; 0 to 100 scale where 0 is no effect and 100 is complete control; read-out: Ducksalad plant response rating
Summary of the method: (§2)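 Response scored visually against untreated controls, 0 = no effect and 100 = complete control, 13–15 d after treatment in the greenhouse. Compounds added to paddy water held 3 cm above soil surface. Treatment given at 2-leaf stage.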

[11] = tested on: sedge, umbrella (small-flower umbrella sedge, Cyperus difformis); test: Test B flooded paddy test; settings: Cyperus difformis, 250 g ai/ha, Flood; 0 to 100 scale where 0 is no effect and 100 is complete control; read-out: Sedge, Umbrella plant response rating
Summary of the method: as §2

[12] = tested on: barnyardgrass (Echinochloa crus-galli); test: Test B flooded paddy test; settings: Echinochloa crus-galli, 250 g ai/ha, Flood; 0 to 100 scale where 0 is no effect and 100 is complete control; read-out: Barnyardgrass plant response rating
Summary of the method: as §2

rice (Oryra sativa) = test: Test B flooded paddy test; settings: Oryza sativa, 250 g ai/ha, Flood; 0 to 100 scale where 0 is no effect and 100 is complete control; read-out: Rice plant response rating
Summary of the method: as §2

[13] = tested on: giant foxtail (Setaria faberii); test: Test A preemergence; settings: Setaria faberi, pre-emergence, 240 h, 0 to 100 scale where 0 is no effect and 100 is complete control, read-out: Foxtail, Giant plant response rating; for pest or weed control at 31 g/ha: 31 g ai/ha, Preemergence; for pest or weed control at 125 g/ha: 125 g ai/ha, preemergence, visual injury rating, approximately 10 d
Summary of the method: as §1

[14] = tested on: pigweed (Amaranthus retroflexus); test: Test A preemergence; settings: Amaranthus retroflexus, pre-emergence, 240 h, 0 to 100 scale where 0 is no effect and 100 is complete control, read-out: Pigweed plant response rating; for pest or weed control at 31 g/ha: 31 g ai/ha, Preemergence; for pest or weed control at 125 g/ha: 125 g ai/ha, preemergence, visual injury rating, approximately 10 d
[15] = tested on: ryegrass, Italian (Italian ryegrass, Lolium multiflorum); test: Test A preemergence; settings: Lolium multiflorum, pre-emergence, 240 h, 0 to 100 scale where 0 is no effect and 100 is complete control, read-out: Ryegrass, Italian plant response rating; for pest or weed control at 31 g/ha: 31 g ai/ha, Preemergence; for pest or weed control at 125 g/ha: 125 g ai/ha, preemergence, visual injury rating, approximately 10 d
Summary of the method: as §1

[16] = tested on: ragweed (common ragweed, Ambrosia elatior); test: Test A preemergence; settings: Ambrosia artemisiifolia, pre-emergence, 240 h, 0 to 100 scale where 0 is no effect and 100 is complete control, read-out: Ragweed plant response rating; for pest or weed control at 31 g/ha: 31 g ai/ha, Preemergence; for pest or weed control at 125 g/ha: 125 g ai/ha, preemergence, visual injury rating, approximately 10 d
Summary of the method: as §1

[17] = tested on: barnyardgrass (Echinochloa crus-galli); test: Test A preemergence; settings: Echinochloa crus-galli, pre-emergence, 240 h, 0 to 100 scale where 0 is no effect and 100 is complete control, read-out: Barnyardgrass plant response rating; for pest or weed control at 31 g/ha: 31 g ai/ha, Preemergence; for pest or weed control at 125 g/ha: 125 g ai/ha, preemergence, visual injury rating, approximately 10 d
Summary of the method: as §1

Kochia (Kochia scoparia) [18] = test: Test A preemergence; settings: Bassia scoparia, pre-emergence, 240 h, 0 to 100 scale where 0 is no effect and 100 is complete control, read-out: Kochia plant response rating; for pest or weed control at 31 g/ha: 31 g ai/ha, Preemergence; for pest or weed control at 125 g/ha: 125 g ai/ha, preemergence, visual injury rating, approximately 10 d
Summary of the method: as §1

Compound | pest or weed control at 125 g/ha [1] [%] | pest or weed control at 31 g/ha [1] [%] | pest or weed control at 125 g/ha [2] [%] | pest or weed control at 31 g/ha [2] [%] | pest or weed control at 125 g/ha [3] [%] | pest or weed control at 31 g/ha [3] [%] | pest or weed control at 125 g/ha [4] [%] | pest or weed control at 31 g/ha [4] [%] | pest or weed control at 125 g/ha [5] [%] | pest or weed control at 31 g/ha [5] [%] | pest or weed control at 125 g/ha [6] [%] | pest or weed control at 31 g/ha [6] [%] | plant injury at 125 g/ha [7] [%] | plant injury at 31 g/ha [7] [%] | pest or weed control at 125 g/ha (Kochia (Kochia scoparia) [8]) [%] | pest or weed control at 31 g/ha (Kochia (Kochia scoparia) [8]) [%] | plant injury at 125 g/ha (corn (Zea mays)) [%] | plant injury at 31 g/ha (corn (Zea mays)) [%] | pest or weed control at 125 g/ha [9] [%] | pest or weed control at 31 g/ha [9] [%] | other results
CN1C[C@H](c2ccc(C(F)(F)F)cc2)[C@@H](C(=O)Nc2ccccc2-n2cncn2)C1=O [Compound 1288] | 0 | 0 | 0 | 0 | 0 | 0 | 0 | 0 | 0 | 0 | 0 | 0 | 0 | 0 | 0 | 0 | 0 | 0 | 0 | 0 | pest or weed control at 250 g/ha [10]: 0%; pest or weed control at 250 g/ha [11]: 0%; pest or weed control at 250 g/ha [12]: 0%; pest or weed control at 250 g/ha (rice (Oryra sativa)): 0%; pest or weed control at 31 g/ha [13]: 0%; pest or weed control at 125 g/ha [13]: 0%; pest or weed control at 31 g/ha [14]: 0%; pest or weed control at 125 g/ha [14]: 0%; pest or weed control at 31 g/ha [15]: 0%; pest or weed control at 125 g/ha [15]: 0%; pest or weed control at 31 g/ha [16]: 0%; pest or weed control at 125 g/ha [16]: 0%; pest or weed control at 31 g/ha [17]: 0%; pest or weed control at 125 g/ha [17]: 0%; pest or weed control at 31 g/ha (Kochia (Kochia scoparia) [18]): 0%; pest or weed control at 125 g/ha (Kochia (Kochia scoparia) [18]): 0%
CN1C[C@H](c2cccc(C(F)(F)F)c2)[C@@H](C(=O)Nc2ccccc2-n2cncn2)C1=O [Compound 1289] | 0 | 0 | 0 | 0 | 0 | 0 | 0 | 0 | 0 | 0 | 0 | 0 | 0 | 0 | 0 | 0 | 0 | 0 | 0 | 0 | pest or weed control at 250 g/ha [10]: 0%; pest or weed control at 250 g/ha [11]: 0%; pest or weed control at 250 g/ha [12]: 0%; pest or weed control at 250 g/ha (rice (Oryra sativa)): 0%; pest or weed control at 31 g/ha [13]: 50%; pest or weed control at 125 g/ha [13]: 50%; pest or weed control at 31 g/ha [14]: 0%; pest or weed control at 125 g/ha [14]: 0%; pest or weed control at 31 g/ha [15]: 0%; pest or weed control at 125 g/ha [15]: 0%; pest or weed control at 31 g/ha [16]: 0%; pest or weed control at 125 g/ha [16]: 0%; pest or weed control at 31 g/ha [17]: 20%; pest or weed control at 125 g/ha [17]: 30%; pest or weed control at 31 g/ha (Kochia (Kochia scoparia) [18]): 0%; pest or weed control at 125 g/ha (Kochia (Kochia scoparia) [18]): 0%
